Series [1] deals with human ovarian carcinoma xenograft model OVXF 899. The series can be described thus: Gemcitabine and compound 15 in human ovarian carcinoma xenograft model OVXF 899. Format: in vivo, NMRI nude mice. The settings on record: for Body weight change (BWC) versus control: compound 15 18 mg/kg gemcitabine equivalents i.v. days 1, 4, 8, 11, 15, 18, 22, 25. The method, then:
Animals were kept in cages, the temperature inside the cages maintained at 25±1° C. with a relative humidity of 45-65% and an air change rate in the cage of 60-fold per hour. […] Feed and water were provided ad libitum. […] Animals were routinely monitored twice daily on working days and daily on Saturdays and Sundays. Starting on day 0, animals were weighed twice a week. Relative body weights (RBW) of individual animals are calculated by dividing the individual absolute body weight on day X (BWx) by the individual body weight on the day of randomization. The tumor volume is determined by a two-dimensional measurement with calipers on the day of randomization (Day 0) and then twice weekly. […] Schedules are applied to the extent that animal welfare policies allow. […] Frozen in liquid nitrogen, lyophilized (>48 h) and stoppered.

For series [2], the system named is human non-small cell carcinoma xenograft model LXFE 937. The series is described as follows: Gemcitabine and compound 15 in human non-small cell carcinoma xenograft model LXFE 937. Format: in vivo, NMRI nude mice. The note with it: for Body weight change (BWC) versus control: compound 15 18 mg/kg gemcitabine equivalents i.v. days 0, 3, 7, 10, 14, 17, 21, 24. Here is the method: Female NMRI nude mice received unilateral tumor implants subcutaneously in the left flank while under isoflurane anesthesia with human LXFE 937 tumor pieces until tumors were palpable and had reached a volume of ˜100 mm^3. Animals were kept in cages, the temperature inside the cages maintained at 25±1° C. with a relative humidity of 45-65% and an air change rate in the cage of 60-fold per hour. The animals were fed with autoclaved Teklad Global 19% Protein Extruded Diet (T.2019S.12) from Harlan Laboratories and had access to sterile filtered and acidified (pH 2.5) tap water which was changed twice weekly. Feed and water were provided ad libitum. […] Animals were routinely monitored twice daily on working days and daily on Saturdays and Sundays. Starting on day 0, animals were weighed twice a week. Relative body weights (RBW) of individual animals are calculated by dividing the individual absolute body weight on day X (BWx) by the individual body weight on the day of randomization. The tumor volume is determined by a two-dimensional measurement with calipers on the day of randomization (Day 0) and then twice weekly. Tumor volumes are calculated according to the following equation: • Tumor Vol [mm^3]=a [mm]×b^2 [mm^2]×0.5, where “a” is the largest diameter and “b” is the perpendicular diameter of the tumor representing an idealized ellipsoid. The relative volume of an individual tumor on day X (RTVx) is calculated by dividing the absolute volume [mm^3] of the respective tumor on day X (Tx) by the absolute volume of the same tumor on the day of randomization. Schedules are applied to the extent that animal welfare policies allow. Termination of individual mice at tumor volume >2000 mm^3. Stock solutions of compound 15 were prepared as follows for the two treatment groups: • 1) 8 mice, 40 g average weight: 2×18 mg/kg gemcitabine equivalents (bi-weekly dosing; d 0, 3, 7, 10 etc. for 4 weeks)≡58.4 mg/kg≡2.35 mg/mouse. Sample preparation: 115.5 mg weighed in a 10 mL vial dissolved in 7.35 mL 20 mM sodium phosphate buffer pH 7; 4 aliquots with 1.86 mL each in 10 mL vials. Frozen in liquid nitrogen, lyophilized (>48 h) and stoppered. On the day of treatment the lyophilized samples were dissolved in 20 mM sodium phosphate buffer pH 7, containing 5% Glucose and injected intravenously. Intravenous administration with vehicle (20 mM sodium phosphate buffer, 5% D-glucose—pH 7.0), gemcitabine (dissolved in 5% D-glucose; dose 240 mg/kg) and carried out on 1, 8, 15, and 22 and compound 15 (dissolved in 20 mM sodium phosphate buffer, 5% D-glucose—pH 7.0; 18 mg/kg gemcitabine equivalents) was carried on days 0, 3, 7, 10, 14, 17, 21, and 24.

The test system of series [3] is human pancreatic carcinoma xenograft model Panc11159. The series is described as follows: Gemcitabine and compound 15 in human pancreatic carcinoma xenograft model Panc11159. The note with it: for tumor volumes (change): at day 85, gemcitabine 240 mg/kg, compound 15 18 mg/kg gemcitabine equivalents; for Body weight change (BWC) versus control: gemcitabine 240 mg/kg i.v. d 36, 43, 50, 57, compound 15 18 mg/kg gemcitabine equivalents i.v. d 36, 40, 43, 47, 50, 54, 57, 60. Type of series: in vivo, NMRI nude mice. The method, then:
Female NMRI nude mice (nu/nu) received unilateral Panc11159 tumor pieces subcutaneously implanted until tumors were palpable and had reached a volume of ˜200 mm^3. Animals were kept in cages (Macrolon Type-II wire-mesh), the temperature inside the cages maintained at 22±1° C. with a relative humidity of 50±10%. Light period: artificial; 12-hours dark/12 hours light rhythm (light 06.00 to 18.00 hours). The health of the mice was examined at the start of the experiment and twice per day during the experiment; identification: Ear mark and cage labels. The animals were fed with Ssniff NM, Soest, Germany and had access to autoclaved and acidified (pH 4.0) drinking. Feed and water were provided ad libitum.
Body weight change was performed two or three times per week. Tumor diameters (median and medium) were measured two or three times a week with a caliper. Tumor volumes were calculated according to V=(length×(width)2)/2. For calculation of the relative tumor volume (RTV) the tumor volumes at each measurement day were related to the day of first treatment. Stock solutions of compound 15 were prepared as follows for the two treatment groups: • 10 mice, 30-40 g average weight: 2×18 mg/kg gemcitabine equivalents (bi-weekly dosing for 4 weeks)≡58.4 mg/kg≡2.35 mg/mouse. Sample preparation: 115.5 mg weighed in a 10 mL vial dissolved in 7.35 mL 20 mM sodium phosphate buffer pH 7; 4 aliquots with 1.86 mL each in 10 mL vials. Frozen in liquid nitrogen, lyophilized (>48 h) and stoppered.
On the day of treatment the lyophilized samples were dissolved in 20 mM sodium phosphate buffer pH 7, containing 5% Glucose and injected intravenously. Intravenous administration with vehicle (20 mM sodium phosphate buffer, 5% D-glucose—pH 7.0) gemcitabine (dissolved in 5% D-glucose; dose 240 mg/kg) and carried out on d 36, 43, 50, 57 compound 15 (dissolved in 20 mM sodium phosphate buffer, 5% D-glucose—pH 7.0; 18 mg/kg gemcitabine equivalents) was carried on days d 36, 40, 43, 47, 50, 54, 57, and 60.

In series [4] the test system is NSLC xenograft model LXFE 397. The series is described as follows: Gemcitabine and compound 15 in human xenograft non small cell lung cancer model LXFE 397. Format: in vivo, NMRI nude mice. The method, then: Female NMRI nude mice received unilateral tumor implants subcutaneously in the left flank while under isoflurane anesthesia with human LXFE 397 (squamous cell carcinoma, differentiation: poor) until tumors were palpable and had reached a volume of 50-150 mm^3. Animals were kept in cages, the temperature inside the cages maintained at 25±1° C. with a relative humidity of 45-65% and an air change rate in the cage of 60-fold per hour. The animals were fed with autoclaved Teklad Global 19% Protein Extruded Diet (T.2019S.12) from Harlan Laboratories and had access to sterile filtered and acidified (pH 2.5) tap water which was changed twice weekly. Feed and water are provided ad libitum. […] Animals are routinely monitored twice daily on working days and daily on Saturdays and Sundays. Starting on day 0, animals are weighed twice a week. Relative body weights (RBW) of individual animals are calculated by dividing the individual absolute body weight on day X (BWx) by the individual body weight on the day of randomization. The tumor volume is determined by a two-dimensional measurement with calipers on the day of randomization (Day 0) and then twice weekly. Tumor volumes are calculated according to the following equation: Tumor Vol [mm^3]=a [mm]×b^2 [mm^2]×0.5, where “a” is the largest diameter and “b” is the perpendicular diameter of the tumor representing an idealized ellipsoid. The relative volume of an individual tumor on day X (RTVx) is calculated by dividing the absolute volume [mm^3] of the respective tumor on day X (Tx) by the absolute volume of the same tumor on the day of randomization. Schedules are applied to the extent that animal welfare policies allow. Termination of individual mice at tumor volume >2000 mm^3. Stock solutions of compound 15 were prepared as follows for the two treatment groups: • 1) 8 mice, 40 g average weight: 24 mg/kg Gemcitabine equivalents≡78.48 mg/kg≡3.14 mg/mouse. Sample preparation: 154 mg weighed in a 20 mL vial dissolved in 14.7 mL 20 mM sodium phosphate buffer pH 7; 4 aliquots with 3.6 mL each in 10 mL vials. Frozen in liquid nitrogen, lyophilized (>48 h) and stoppered. • 2) 8 mice, 40 g average weight: 36 mg/kg Gemcitabine equivalents≡117.7 mg/kg≡4.71 mg/mouse. Sample preparation: 231 mg weighed in a 20 mL vial dissolved in 14.7 mL 20 mM sodium phosphate buffer pH 7; 4 aliquots with 3.6 mL each in 10 mL vials. Frozen in liquid nitrogen, lyophilized (>48 h) and stoppered.
On the day of treatment the lyophilized samples were dissolved in 20 mM sodium phosphate buffer pH 7, containing 5% Glucose and injected intravenously. […]
For orientation: A xenograft is tissue or cells of one species grown in another, often human tumour cells in immunodeficient mice.

Another series has as its target T1, cytidine deaminase (Homo sapiens, UniProt P32320).
T1 construct: host or cells: endogenous enzyme in the dosed subject (in vivo metabolism)
The note with it: recommended dose of ˜1000 mg/m^2; cited from earlier work.

[5] abbreviates: approximately one seventh of the dose of gemcitabine, p<0.05.
Where [6] appears, read: gemcitabine 240 mg/kg i.v. days 1, 8, 15, 22.

The values below come from patent US12497417B2, “Delivery systems for controlled drug release” (LADRX CORPORATION, priority 2015, dated 2025).

T1 sequence (P32320 whole entry): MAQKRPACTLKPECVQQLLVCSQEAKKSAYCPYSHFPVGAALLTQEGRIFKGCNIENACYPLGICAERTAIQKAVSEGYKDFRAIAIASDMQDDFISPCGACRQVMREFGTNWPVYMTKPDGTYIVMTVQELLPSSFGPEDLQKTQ

With `C/C(=N\NC(=O)c1ccc(NC(=O)CCCCCN2C(=O)C=CC2=O)cc1[N+](=O)[O-])c1ccc(C(=O)Nc2ccn([C@@H]3O[C@H](COP(=O)(O)O)C(O)C3(F)F)c(=O)n2)cc1` (stereo partly drawn) [Compound 15], the tumor response result was “complete tumor remissions” in series [1] (50 days after the end of therapy, 18 mg/kg gemcitabine equivalents bi-weekly for 4 weeks) and “complete tumor remissions” in series [2] (˜60 days after the end of therapy, 18 mg/kg gemcitabine equivalents bi-weekly for 4 weeks). The “antitumor efficacy versus gemcitabine (tumor growth development)” value in series [1] (setting [5]) is on record as “superior antitumor efficacy”; in series [2] (setting [5]), “superior antitumor efficacy”; in series [3] (setting [5]) it was “superior antitumor efficacy”; in series [4] (24 mg/kg gemcitabine equivalents, one tenth of the dose of gemcitabine, p<0.05) it was “superior antitumor efficacy”. For the same compound, the “Body weight change (BWC) versus control” value was “approximately +10%” in series [1] (setting [6]); “approximately +2%” in series [2] (setting [6]); “approximately +3%” in series [3]; roughly 0.5% in series [4] (day 27, 24 mg/kg gemcitabine equivalents i.v. days 1, 8, 15, 22). Also, the “tumor volumes (change)” value in series [3] is listed as “slight regression or stable disease”.

As for `Nc1ccn([C@@H]2O[C@H](CO)[C@@H](O)C2(F)F)c(=O)n1` [gemcitabine], the average tumor volume in series [1] (50 days after therapy, gemcitabine 240 mg/kg) was roughly 2000 mm^3; in series [2] (˜50 days after therapy, gemcitabine 240 mg/kg), roughly 700 mm^3. Also, the “start of tumor regrowth” value in series [1] (setting [6]) is roughly 10 days after therapy; in series [2] (setting [6]), roughly 20 days after therapy. Besides, the “Body weight change (BWC) versus control” value was “approximately +5%” in series [1] (setting [6]); “approximately +10%” in series [2] (setting [6]); “approximately +3%” in series [3]; “approximately −6%” in series [4] (day 23, gemcitabine 240 mg/kg i.v. days 1, 8, 15, 22). The “mice sacrificed due to tumor volume exceeding 2000 mm^3” value in series [1] (on day 74, 8 mice per group) is reported as 3 mice; in series [2] (between day 78 to 85, 8 mice per group), 2 mice; in series [4] (on day 23, 8 mice per group, gemcitabine 240 mg/kg), 2 mice. The “tumor volumes (change)” value in series [3] was “doubled”. Also, the “fraction deactivated by cytidine deaminase to the inactive uridine metabolite and excreted in the urine” value on cytidine deaminase was “approximately 90%”.
